The species entered for test [1] is Oryctolagus cuniculus. The experiment in a line: Binding affinity to rabbit actin polymerization at IC50 after 2 hrs by DARTS-Western blot method. On the technique in general: A western blot detects proteins with antibodies after separation by electrophoresis.
In test [2] the test system is A-431. The experiment in a line: Induction of apoptosis in human A431 cells at 10 ug/ml after 16 hrs using annexin V/propidium iodide by flow cytometry. Type of test: functional, cell-based. On the technique in general: A flow cytometer gives signals particle by particle.
For test [3], the system named is HUVEC. The experiment in a line: Increase in ROS production in HUVEC at after 1 hr by DHE assay. Type of test: functional, cell-based. Particulars: Homo sapiens.
Test [4] relates to Escherichia coli. The experiment in a line: Antimicrobial activity against Escherichia coli expressing tolC after 1 to 2 days by agar diffusion assay. The format is functional, organism-based. For orientation: A growth-free zone around the sample is the usual read-out of agar diffusion tests.
In a further test the test system is Wickerhamomyces anomalus. As to the kind of experiment: Antimicrobial activity against Hansenula anomala after 1 to 2 days by agar diffusion assay. The format is functional, organism-based.
For a further test, the target named is Tubulin (Sus scrofa, UniProt P02554+P02550). As to the kind of experiment: (§1) Inhibition of pig brain tubulin polymerization by spectrophotometry.
The subject of test [5] is A-431. The experiment in a line: Reduction in ATP level in human A431 cells assessed as cell viability after 10 mins by Cell Titer Glo luminescent assay. The format is functional, cell-based.
Test [6] concerns Escherichia coli. The experiment in a line: Antimicrobial activity against Escherichia coli A1 after 1 to 2 days by agar diffusion assay. The format is functional, organism-based.
Test [7] has as its system A-431. As to the kind of experiment: Induction of apoptosis in human A431 cells assessed as caspase3/7 activation at 2.6 uM after 5 to 25 mins by luminescence assay. Type of test: functional, cell-based.
Test [8] is described as follows: Inhibition of rabbit actin polymerization by spectrophotometry. The arrangement: species or system Oryctolagus cuniculus.
In a further test the test system is Micrococcus luteus. The experiment in a line: Antimicrobial activity against Micrococcus luteus after 1 to 2 days by agar diffusion assay. The format is functional, organism-based.
Test [9] concerns HUVEC. The experiment in a line: Increase in ROS production in HUVEC at after 1 hr by DCF assay. The format is functional, cell-based. To be noted: Homo sapiens.
The test system of test [10] is HUVEC. As to the kind of experiment: Cytotoxicity against HUVEC after 18 hrs by MTT assay. To be noted: Homo sapiens. The format is functional, cell-based.
The test system of a further test is Pseudomonas aeruginosa. The experiment in a line: Antimicrobial activity against Pseudomonas aeruginosa after 1 to 2 days by agar diffusion assay. The format is functional, organism-based.
The subject of a further test is Klebsiella pneumoniae. The experiment in a line: Antimicrobial activity against Klebsiella pneumoniae after 1 to 2 days by agar diffusion assay. Type of test: functional, organism-based.
For test [11], the target named is T1, Tubulin (Sus scrofa) (UniProt P02554+P02550). As to the kind of experiment: Binding affinity to pig brain tubulin at IC90 after 2 hrs by DARTS-Western blot method.
Another test deals with Mycolicibacterium phlei. As to the kind of experiment: Antimicrobial activity against Mycobacterium phlei after 1 to 2 days by agar diffusion assay. The format is functional, organism-based.
The next test deals with Staphylococcus aureus. As to the kind of experiment: Antimicrobial activity against Staphylococcus aureus after 1 to 2 days by agar diffusion assay. The format is functional, organism-based.
The species named for test [12] is Oryctolagus cuniculus. The experiment in a line: Binding affinity to rabbit actin polymerization after 2 hrs by DARTS-Western blot method.
Test [13] deals with T1, Tubulin (Sus scrofa). The experiment in a line: Binding affinity to pig brain tubulin after 2 hrs by DARTS-Western blot method. Type of test: tissue-based.
Test [14] can be described thus: Cytotoxicity against human KB3-1 cells after 18 hrs by MTT assay. To be noted: KB 3-1, 18 h. Type of test: functional, cell-based.
A short description of test [15]: Cytotoxicity against Potorous tridactylus PtK2 cells after 18 hrs by MTT assay. The format is functional, cell-based. To be noted: PtK2, 18 h.
Test [16] has as its system A-431. As to the kind of experiment: Increase in ROS production in human A431 cells at after 1 hr by DCF assay. The format is functional, cell-based.
Test [17] in a line: Depletion of actin filaments in Potorous tridactylus PtK2 cells at IC90 by microscopy. The format is cell-based.
Test [18] is filed under the species Oryctolagus cuniculus. The experiment in a line: Binding affinity to rabbit actin polymerization at IC90 after 2 hrs by DARTS-Western blot method.
Test [19] concerns A-431. The experiment in a line: Increase in ROS production in human A431 cells at after 1 hr by DHE assay. The format is functional, cell-based.
The subject of another test is Aspergillus niger. As to the kind of experiment: Antimicrobial activity against Aspergillus niger after 1 to 2 days by agar diffusion assay. The format is functional, organism-based.
Test [20] deals with A-431. The experiment in a line: Cytotoxicity against human A431 cells after 18 hrs by MTT assay. The format is functional, cell-based. Particulars: A-431, 18 h.
Test [21] relates to Globisporangium debaryanum. As to the kind of experiment: Antimicrobial activity against Pythium debaryanum after 1 to 2 days by agar diffusion assay. The format is functional, organism-based.
The next test deals with HCT-116. As to the kind of experiment: Cytotoxicity against human HCT116 cells after 18 hrs by MTT assay. To be noted: HCT-116, 18 h. Type of test: functional, cell-based.
Test [22] in a line: Depletion of microtubules in Potorous tridactylus PtK2 cells at IC90 by microscopy. Type of test: cell-based.
The test system of a further test is Botrytis cinerea. The experiment in a line: Antimicrobial activity against Botrytis cinerea after 1 to 2 days by agar diffusion assay. Type of test: functional, organism-based.
Test [23] concerns A-431. As to the kind of experiment: Induction of apoptosis in human A431 cells at 12 ug/ml after 16 hrs using annexin V/propidium iodide by flow cytometry. Type of test: functional, cell-based.
The next test concerns L929. The experiment in a line: Cytotoxicity against mouse L929 cells after 18 hrs by MTT assay. To be noted: L929, 18 h. Type of test: functional, cell-based.
Test [24] has as its target T1, Tubulin (Sus scrofa). The test is described as §1.
In test [25] the target is T1, Tubulin (Sus scrofa). The experiment in a line: Binding affinity to pig brain tubulin at IC50 after 2 hrs by DARTS-Western blot method.

Experimental findings from ChEMBL document CHEMBL3217439, “Deciphering intracellular targets of organochalcogen based redox catalysts” (Medchemcomm, 2012) are described below.

Active and inactive are the calls of the source. The calls are words filed in the database; no cut-off is given here.

For orientation: IC50 means the concentration at which inhibition is half-maximal. Low values mean greater potency in that assay, high ones weaker potency in that assay.

T1 sequence (P02550 whole entry, looked up, the tested form may be a part): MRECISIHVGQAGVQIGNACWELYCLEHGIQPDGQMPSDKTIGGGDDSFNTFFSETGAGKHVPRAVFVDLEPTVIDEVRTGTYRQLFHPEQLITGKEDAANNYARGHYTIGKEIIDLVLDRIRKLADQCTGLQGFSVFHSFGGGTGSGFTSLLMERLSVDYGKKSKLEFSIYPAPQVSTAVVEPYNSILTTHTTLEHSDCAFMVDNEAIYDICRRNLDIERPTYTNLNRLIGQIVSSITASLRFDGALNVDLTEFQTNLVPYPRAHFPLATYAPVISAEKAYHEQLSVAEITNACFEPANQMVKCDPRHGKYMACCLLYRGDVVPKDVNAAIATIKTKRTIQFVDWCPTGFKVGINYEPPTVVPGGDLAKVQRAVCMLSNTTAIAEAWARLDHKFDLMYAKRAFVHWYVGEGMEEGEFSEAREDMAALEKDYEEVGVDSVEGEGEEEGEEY
T1 sequence (P02554 whole entry, looked up, the tested form may be a part): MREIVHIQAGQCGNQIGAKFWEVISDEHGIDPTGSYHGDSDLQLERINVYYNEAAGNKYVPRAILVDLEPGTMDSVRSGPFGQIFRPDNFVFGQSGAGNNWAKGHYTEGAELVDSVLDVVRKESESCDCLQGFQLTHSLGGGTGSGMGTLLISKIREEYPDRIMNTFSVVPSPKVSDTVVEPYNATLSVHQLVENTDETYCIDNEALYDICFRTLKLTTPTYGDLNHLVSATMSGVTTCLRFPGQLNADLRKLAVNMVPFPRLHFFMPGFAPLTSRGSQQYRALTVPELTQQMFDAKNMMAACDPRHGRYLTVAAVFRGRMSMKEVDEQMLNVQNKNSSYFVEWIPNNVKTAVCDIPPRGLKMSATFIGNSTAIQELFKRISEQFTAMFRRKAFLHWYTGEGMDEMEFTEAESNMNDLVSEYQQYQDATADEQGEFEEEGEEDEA

In the case of `COC1CC(O)/C=C/C=C/C=C\C(C)C(C(C)C(O)CC(C)O)OC(=O)/C=C/C=C/C=C/C(C)=C/C(C)C(O[C@H]2O[C@H](C)[C@@H](O)[C@H](OC)[C@H]2OC)/C=C\C=C\c2coc(n2)C1C` (stereo partly specified), the outcome in the test filed under Oryctolagus cuniculus [1] was Active.

With `CC1=C([Te]c2ccccc2)C(=O)c2ccccc2C1=O`, the outcome with A-431 [2], with Escherichia coli [4], with Wickerhamomyces anomalus, with A-431 [5], with Escherichia coli [6] and with A-431 [7] was Active. The outcome (with Micrococcus luteus; in the test with Klebsiella pneumoniae; on Tubulin (Sus scrofa) [11]; in the test with Mycolicibacterium phlei; in the test on Staphylococcus aureus; in test [17]) was Active. The outcome (in the test filed under Oryctolagus cuniculus [18]; in the test on Aspergillus niger; in [21]; in [22]; with Botrytis cinerea; with A-431 [23]) was Active. The Activity result in the test on HUVEC [3], in the test on HUVEC [9], in the test listed under Oryctolagus cuniculus [12], at Tubulin (Sus scrofa) [13], with A-431 [16] and with A-431 [19] was “Dose-dependent effect” in each case. Also, the concentration for half-maximal inhibition (IC50) against Tubulin turned out to be 15 µM; in test [8], 30 µM; with HUVEC [10] it was 9.5 µM; in [14], 1300 nM; in test [15], 9 µM; in the test with A-431 [20], 5 µM. Further, the IC50 was found to be 5.3 µM with HCT-116 and 11 µM in the test on L929. Further, the result in the test with Pseudomonas aeruginosa was inactive.

For `O=C1C([Te]c2ccccc2)=C([Te]c2ccccc2)C(=O)c2ccccc21`, the result with A-431 [2], in the test with Escherichia coli [4], in the test on Wickerhamomyces anomalus, with A-431 [5], in the test on Escherichia coli [6] and in the test with A-431 [7] was Active. Further, the outcome (in the test filed under Oryctolagus cuniculus [1]; with Micrococcus luteus; in the test on Klebsiella pneumoniae; with Mycolicibacterium phlei; in the test on Staphylococcus aureus; in test [17]) was Active. In addition, the result (in the test on Aspergillus niger; in [21]; in the test on Botrytis cinerea; in the test with A-431 [23]) was Active. Moreover, the Activity entry with HUVEC [3], with HUVEC [9], in the test on A-431 [16] and in the test with A-431 [19] was “Dose-dependent effect” in each case. Moreover, the inhibition result at Tubulin (Sus scrofa) [24] was “inactive”. Also, the result (on Tubulin (Sus scrofa) [25]; in the test on Pseudomonas aeruginosa; in test [22]) was inactive. In addition, the IC50 worked out at 30 µM in test [8]; 5.1 µM in the test on HUVEC [10]; 250 nM in test [14]; 7.2 µM in [15]; 4.4 µM in the test on A-431 [20]; 5.4 µM in the test on HCT-116. Further, in the test on L929, 5.8 µM corresponded to half-maximal inhibition (IC50).

For `CC[C@@H](C)[C@H](NC(=O)[C@H]1CCCCN1C)C(=O)N(COC(=O)CC(C)C)[C@H](C[C@@H](OC(C)=O)c1nc(C(=O)N[C@@H](Cc2ccc(O)cc2)C[C@H](C)C(=O)O)cs1)C(C)C`, at Tubulin (Sus scrofa) [13], the outcome was Active.
